Measurements as given in paper PMC3116712 (ACS medicinal chemistry letters, 2011).

Key:
[1] = biological target: A/M2-V27A mutant channel (Influenza A virus, UniProt P0DOF5, V27A); assay type: cell-based
[2] = biological target: A/M2 S31N mutant (Influenza A virus, UniProt P0DOF5, S31N); assay type: cell-based

Row | Compound | percentage inhibition against V27A mutant of A/M2 ([1]; 100 µM) [%] | inhibitory effect on S31N mutant (in words) [2] | inhibitory effect on V27A mutant (in words) [1]
1 | Cl.NC12CC3CC(CC(C3)C1)C2 [Amantadine, reference compound] | 0 | – | –
2 | Cl.NC(CO)C12CC3CC(CC(C3)C1)C2 (stereo not drawn) [Compound 27] | – | no inhibitory effect | no inhibitory effect
